Patent US11137392B2, “Cantilever sensors for molecule detection” (3P SENSE LIMITED, priority 2016, dated 2021)

Experiments:
[1] = system: vancomycin susceptible receptor (VSR); settings: previous measurements (known cantilever); cited from earlier work
[2] = system: vancomycin susceptible receptor (VSR); assay: Differential cantilever bending / surface stress of unpassivated VSR-functionalized cantilevers against Van; assay type: binding
Method: Detection of cantilever bending response in case of optical readout is performed, for example, by using serial time multiplexed optical beam method with a single position sensitive detector, although other readouts such as electronic or diffraction can be used. The laser spot (about 100 μm diameter) is aligned onto the free end of each sensor where the accuracy of alignment is confirmed by heating test. The expected precision of laser spot alignment is determined by calculating the bending variation at the maximum bending signals between individual cantilever sensors. Well aligned cantilevers at the maximum bending signals should yield a relative standard deviation of the bending signals of about ≤10%, preferably about ≤5%, between them. Correlating the response signal to the presence or absence of the molecule to be detected includes a first step of calculating the net change in stress, using the mathematical model reported above, and then a second step of associating the net change in stress value to the presence of absence of the molecule and, in case of presence, to the concentration level of the molecule.
Case I: Simultaneous functionalization of Au(top) and Si(bottom) surfaces of cantilever arrays: To systematically alter both Au(top) and Si(bottom) surfaces into chemically active sensing layers, the arrays of eight rectangular cantilevers were subjected to surface capture molecules in micro-capillary glass tubes (King Precision Glass, Claremont, Calif., USA), arranged according to the cantilever pitch size of 250 μm. The alkanethiols of self-assembled monolayers (SAMs), namely vancomycin susceptible receptor (VSR˜0.6 kDa) analogues to bacterial cell wall precursors that present uncrosslinked peptide motifs terminating in the sequence lysine-D-alanine-D-alanine and ‘inert’ SAM molecule terminating in triethylene glycol (PEG) whose detailed structural sequences have been described previously were diluted in ethanol solution to yield total concentrations of: 0.1 μM, 1 μM, 10 μM, 50 μM, 100 μM, 1000 μM, 2000 μM, 3000 μM and 4000 μM. Individual VSR and PEG concentrations were injected into micro-capillary glass tubes and cantilevers were then incubated inside the capillaries for 20 min, washed three times with ethanol and stored in distilled water until usage. The functionalization procedure was carried out without pre-adsorbing resistive protein monolayer bovine serum albumin (BSA) or PEG-silane, known for blocking nonspecific interactions.
To tune the receptor footprint (area per each receptor molecule) for enhanced biodetectability and to achieve satisfactory quantitative drug-target measurements, certain steps within the functionalization protocol were addressed. The first task was to define the percentage ratio of VSR by incorporating a receptor molecule with second SAM-forming molecule PEG. The ratio of VSR and PEG molecules dissolved in ethanol was varied to yield a total concentration in the solution of 1 μM, for which full surface coverage was established. The corresponding mixed ethanolic thiol solutions of VSR and ‘inert’ PEG mixed in the ratio of 30%, 70%, 90%, and 100% were used to coat cantilever arrays.
FIG. 1a-b show the functionalization of both surfaces of the cantilever with a self-assembled monolayer (SAM) of vancomycin (Van) susceptible receptor (VSR ˜0.6 kDa) analogues of the bacterial cell wall precursors that present uncrosslinked peptide motifs terminating in the sequence lysine-D-alanine-D-alanine. To eliminate the artifacts that produce non-specific signals differential measurements were performed in which reference polyethylene glycol(PEG)-coated cantilever bending signals were subtracted from the receptor signals.
This functionalization was performed without pre-adsorbing a resistive protein monolayer of bovine serum albumin (BSA) or PEG-silane, which are known to block non-specific interactions. […]

Compound: CN[C@H](CC(C)C)C(=O)N[C@H]1C(=O)N[C@@H](CC(N)=O)C(=O)N[C@H]2C(=O)N[C@H]3C(=O)N[C@H](C(=O)N[C@H](C(=O)O)c4cc(O)cc(O)c4-c4cc3ccc4O)[C@H](O)c3ccc(c(Cl)c3)Oc3cc2cc(c3O[C@@H]2O[C@H](CO)[C@@H](O)[C@H](O)[C@H]2O[C@H]2C[C@](C)(N)[C@H](O)[C@H](C)O2)Oc2ccc(cc2Cl)[C@H]1O [Van, vancomycin]
- Net stress, previous measurements [1]: 33 mN m^−1
- Compressive stress (differential surface stress) ([2]; Van 250 μM, VSR 50 μM in functionalizing solution, unpassivated cantilever): 52 mN m^−1
- Stress signal σmax ([2]; Van 250 μM, VSR concentration beyond 50 μM (regime II)): ≈ 5 mN m^−1
- Cantilever stress ([2]; Van 250 μM, VSR/PEG 100% receptor, total concentration 1 μM): highest stress
- Cantilever deflection signal ([2]; Van 250 μM, VSR/PEG ~30% receptor, total concentration 1 μM): negligible
- Differential stress / bending response on reference PEG-coated cantilevers ([2]; Van 250 μM, reference PEG-coated cantilevers): no bending response and zero
- Mechanical response on uncoated Au and Si surfaces ([2]; in the presence of Van, uncoated Au and Si surfaces as control): undetectable
